How the values were obtained:
[1] = test system: high voltage-activated potassium currents in MNTB neurons (presumed to be mediated by Kv3.1 channels); experiment: Potassium currents recorded from MNTB neurons, in vitro (Example 91); assay type: cell-based, mouse; conditions: 10 microM in the continuing presence of TEA (1 mM); voltage steps to +40 mV
Experimental: Male CBA/Ca mice (aged 12-16 days) were used in these experiments (in accordance with the UK Animals Scientific Procedures Act, 1986). Brain slices containing the medial nucleus of the trapezoid body (MNTB) were prepared as described previously (Brew and Forsythe, 2005).
Chemicals and reagents were purchased from Sigma, (Poole, UK) unless otherwise noted. EXAMPLE 19 was dissolved in DMSO and diluted in ACSF to the required concentration.
Recordings from identified MNTB neurons were conducted as previously described (Brew and Forsythe, 2005). Slices was placed in a superfusion chamber on an inverted microscope stage and continuously perfused with gassed (95% O2-5% CO2) ACSF at a rate of 1 ml min^−1 at room temperature. Whole-cell recordings were made from visually identified MNTB neurons using an […] amplifier (Molecular Devices, Union City, Calif., USA). Patch solution comprised (in mM) potassium gluconate (97.5), KCl (32.5), Hepes (40), EGTA (5), MgCl2 (1), Na2 phosphocreatin (5), pH 7.2 with KOH. Pipettes had resistances of 3-5 MΩ and series resistances were 6-10 MΩ (compensated by 70%, 10 μs lag). Access resistance was frequently monitored and the recording discarded if increases were more than 2 MΩ. […]

[2] = target: T1, hKv3.2 (Homo sapiens, UniProt Q96PR1); experiment: IonWorks Quattro assay, secondary analysis of activation time constant (Tauact); assay type: cell-based; conditions: classification from effect on Tauact
T1 construct: expressed in transfected cells; host or cells: CHO-K1
T1 sequence (Q96PR1 1-638): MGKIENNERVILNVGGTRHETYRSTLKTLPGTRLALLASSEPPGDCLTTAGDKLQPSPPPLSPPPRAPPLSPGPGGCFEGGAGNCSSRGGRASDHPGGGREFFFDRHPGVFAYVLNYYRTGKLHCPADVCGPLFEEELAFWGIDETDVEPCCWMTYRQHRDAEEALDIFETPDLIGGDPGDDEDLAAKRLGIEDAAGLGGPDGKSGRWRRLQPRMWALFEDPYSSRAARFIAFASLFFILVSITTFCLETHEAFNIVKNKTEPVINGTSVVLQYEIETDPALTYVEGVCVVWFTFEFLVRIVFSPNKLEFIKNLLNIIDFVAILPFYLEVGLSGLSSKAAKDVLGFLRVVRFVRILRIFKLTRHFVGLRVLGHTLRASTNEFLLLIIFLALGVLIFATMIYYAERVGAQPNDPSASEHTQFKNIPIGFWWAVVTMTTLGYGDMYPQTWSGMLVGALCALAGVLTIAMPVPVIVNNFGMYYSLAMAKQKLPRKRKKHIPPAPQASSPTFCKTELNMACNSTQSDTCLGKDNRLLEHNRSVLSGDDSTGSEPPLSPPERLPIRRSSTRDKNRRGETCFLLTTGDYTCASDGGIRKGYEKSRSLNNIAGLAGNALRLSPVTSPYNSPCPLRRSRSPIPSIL
Experimental: A stable cell line expressing human Kv3.2 channels (hKv3.2) was created by transfecting Chinese Hamster Ovary (CHO)-K1 cells with a pCIH5-hKv3.2 vector. Cells were cultured in DMEM/F12 medium supplemented by 10% Foetal Bovine Serum, 1× non-essential amino acids (Invitrogen) and 500 ug/ml of Hygromycin-B (Invitrogen). Cells were grown and maintained at 37° C. in a humidified environment containing 5% CO2 in air.
The day of the experiment, cells were removed from the incubator and the culture medium removed. Cells were washed with 5 ml of Dulbecco's PBS (DPBS) calcium and magnesium free and detached by the addition of 3 ml Versene (Invitrogen, Italy) followed by a brief incubation at 37° C. for 5 minutes. The flask was tapped to dislodge cells and 10 ml of DPBS containing calcium and magnesium was added to prepare a cell suspension. The cell suspension was then placed into a 15 ml centrifuge tube and centrifuged for 2 min at 1200 rpm. After centrifugation, the supernatant was removed and the cell pellet re-suspended in 4 ml of DPBS containing calcium and magnesium using a 5 ml pipette to break […] up the pellet. Cell suspension volume was then corrected to give a cell concentration for the assay of approximately 3 million cells per ml.
Experiments were conducted at room temperature using IonWorks Quattro™ planar array electrophysiology technology (Molecular Devices Corp.) with PatchPlate™ PPC. Stimulation protocols and data acquisition were carried out using a microcomputer (Dell Pentium 4). Planar electrode hole resistances (Rp) were determined by applying a 10 mV voltage step across each well. These measurements were performed before cell addition. […] Following this, amphotericin-B solution was added to the intracellular face of the electrode to achieve intracellular access. Cells were held at −70 mV. Leak subtraction was conducted in all experiments by applying 50 ms hyperpolarizing (10 mV) prepulses to evoke leak currents followed by a 20 ms period at the holding potential before test pulses. From the holding potential of −70 mV, a first test pulse to −15 mV was applied for 100 ms and following a further 100 ms at −70 mV, a second pulse to 40 mV was applied for 50 ms. Cells were then maintained for a further 100 ms at −100 mV and then a voltage ramp from −100 mV to 40 mV was applied over 200 ms. In all experiments, the test pulses protocol was performed in the absence (pre-read) and presence (post-read) of the test compound. Pre- and post-reads were separated by the compound addition followed by a 3 minute incubation.
The magnitude of the effect of a compound can be determined from the time constant (Tauact) obtained from a non-linear fit, using the equation given below, of the rise in Kv3.1 or Kv3.2 currents following the start of the depolarising voltage pulse. Y=(Y0−Ymax)*exp(−K*X)+Ymax
Where: • Y0 is the current value at the start of the depolarising voltage pulse; • Ymax is the plateau current;
K is the rate constant, and Tauact is the activation time constant, which is the reciprocal of K.

CC[C@H]1NC(=O)N(c2ccc(Oc3ccc(C)c(OC)c3)nc2)C1=O [Example 19, (5R)-5-ethyl-3-(6-{[4-methyl-3-(methyloxy)phenyl]oxy}-3-pyridinyl)-2,4-imidazolidinedione]
reversal of TEA-induced reduction of high voltage-activated potassium current amplitude [1]: reversed
acts as positive or negative modulator of Kv3.1 and/or Kv3.2 [2]: positive modulators

From patent publication US9849131B2 (AUTIFONY THERAPEUTICS LIMITED, priority 2009, dated 2017)
